In PubChem BioAssay AID212 (DTP/NCI, 2004):
Several values for one entry are separate records, joined by “and”; a condition that tells them apart may be missing. Identical values can stand only once. Records with an inconclusive call do not appear.

System: BDF1 mice, colon carcinoma 38 sc, T/C %
Test: NCI In Vivo Anticancer Drug Screen. Data for tumor model Colon Carcinoma 38 (subcutaneous) in B6D2F1 (BDF1) mice
Settings: endpoint: median tumor weight (est.), higher = larger tumour
Experimental: The antitumor activity of compounds was measured in mice bearing transplantable tumors. Survival or tumor size were measured and the results are expressed as the measurement made in the treated group (T) divided by the measurement made in the vehicle treated control group (C). The tumor model used in this assay is Colon Carcinoma 38 (subcutaneous) in B6D2F1 (BDF1) mice

[1] = dose: 10.0 mg/kg/injection, schedule: Q07DX002 (ip), vehicle: saline
[2] = dose: 20.0 mg/kg/injection, schedule: Q07DX002 (ip), vehicle: saline
[3] = dose: 50.0 mg/kg/injection, schedule: Q07DX002 (ip), vehicle: saline with Tween-80
[4] = dose: 100.0 mg/kg/injection, schedule: Q07DX002 (ip), vehicle: saline with Tween-80
[5] = dose: 100.0 mg/kg/injection, schedule: Q07DX002 (ip), vehicle: saline
[6] = dose: 200.0 mg/kg/injection, schedule: Q07DX002 (ip), vehicle: saline with Tween-80
[7] = dose: 400.0 mg/kg/injection, schedule: Q07DX002 (ip), vehicle: saline with Tween-80
[8] = dose: 12.5 mg/kg/injection, schedule: Q07DX002 (ip), vehicle: Klucel (hydroxypropylcellulose) (HPC)
[9] = dose: 25.0 mg/kg/injection, schedule: Q07DX002 (ip), vehicle: Klucel (hydroxypropylcellulose) (HPC)
[10] = dose: 200.0 mg/kg/injection, schedule: Q07DX002 (ip), vehicle: Klucel (hydroxypropylcellulose) (HPC)
[11] = dose: 12.5 mg/kg/injection, schedule: Q07DX002 (ip), vehicle: suspension in saline
[12] = dose: 25.0 mg/kg/injection, schedule: Q07DX002 (ip), vehicle: suspension in saline
[13] = dose: 50.0 mg/kg/injection, schedule: Q07DX002 (ip), vehicle: suspension in saline
[14] = dose: 12.5 mg/kg/injection, schedule: Q07DX002 (ip), vehicle: saline with Tween-80
[15] = dose: 25.0 mg/kg/injection, schedule: Q07DX002 (ip), vehicle: saline with Tween-80
[16] = dose: 50.0 mg/kg/injection, schedule: Q07DX002 (ip), vehicle: Klucel (hydroxypropylcellulose) (HPC)
[17] = dose: 100.0 mg/kg/injection, schedule: Q07DX002 (ip), vehicle: Klucel (hydroxypropylcellulose) (HPC)
[18] = dose: 400.0 mg/kg/injection, schedule: Q07DX002 (ip), vehicle: Klucel (hydroxypropylcellulose) (HPC)
[19] = dose: 25.0 mg/kg/injection, schedule: Q07DX002 (ip), vehicle: water
[20] = dose: 100.0 mg/kg/injection, schedule: Q07DX002 (ip), vehicle: water
[21] = dose: 200.0 mg/kg/injection, schedule: Q07DX002 (ip), vehicle: water

`O=c1[nH]c(=O)n(C2CC(O)C(CO)O2)cc1C(F)(F)F` (stereo not drawn) was tested, and the T/C [1] was 83 % of control, the T/C [2] was 77 % of control and the T/C [3] was 100 % of control. The T/C (dose: 50.0 mg/kg/injection, schedule: Q07DX002 (ip), vehicle: saline) was 114 % of control, the T/C [4] was 117 % of control and the T/C [5] was 84 % of control. For the same molecule, the T/C (dose: 160.0 mg/kg/injection, schedule: Q07DX002 (ip), vehicle: saline) was 118 % of control, the T/C [6] was 101 % of control and the T/C (dose: 200.0 mg/kg/injection, schedule: Q07DX002 (ip), vehicle: saline) was 95 % of control. The T/C (dose: 320.0 mg/kg/injection, schedule: Q07DX002 (ip), vehicle: saline) was 156 % of control, the T/C [7] was 94 % of control and the T/C (dose: 800.0 mg/kg/injection, schedule: Q07DX002 (ip), vehicle: saline with Tween-80) was 105 % of control. The T/C (dose: 800.0 mg/kg/injection, schedule: Q07DX002 (ip), vehicle: saline) was 90 % of control, the T/C (dose: 1600.0 mg/kg/injection, schedule: Q07DX002 (ip), vehicle: saline with Tween-80) was 108 % of control and the T/C (dose: 1600.0 mg/kg/injection, schedule: Q07DX002 (ip), vehicle: saline) was 41 % of control.
In the case of `CCCCc1ccc(-n2c(C)c(COC(=O)NC)c(COC(=O)NC)c2C)cc1`, the T/C [8] is reported as 88 % of control, the T/C [9] is reported as 66 % of control and the T/C [10] is reported as 60 % of control.
`C=C(NC(=O)C(=C)NC(=O)c1csc(C2=NC3c4csc(n4)C4NC(=O)c5csc(n5)C(C(C)(O)C(C)O)NC(=O)C5CSC(=N5)/C(=C/C)NC(=O)C(C(C)O)NC(=O)c5csc(n5)C3(CC2)NC(=O)C(C)NC(=O)C(=C)NC(=O)C(=C)NC(=O)C(C(C)C)NC2C=Cc3c(C(C)O)cc(nc3C2O)C(=O)OC4C)n1)C(N)=O` (stereo not drawn) was tested, and the T/C [11] was 95 % of control, the T/C [12] was 98 % of control and the T/C [13] was 111 % of control. For the same molecule, the T/C (dose: 100.0 mg/kg/injection, schedule: Q07DX002 (ip), vehicle: suspension in saline) was 72 % of control, the T/C (dose: 200.0 mg/kg/injection, schedule: Q07DX002 (ip), vehicle: suspension in saline) was 75 % of control and the T/C (dose: 400.0 mg/kg/injection, schedule: Q07DX002 (ip), vehicle: suspension in saline) was 86 % of control.
With `COc1ccc(OC)c(/C=C/c2ccnc3ccccc23)c1` the T/C [14] was 152 % of control, the T/C [15] was 101 % of control and the T/C [3] was 86 % of control. The T/C [4] was 116 % of control, the T/C [6] was 111 % of control and the T/C [7] was 75 % of control.
`CC[N+](CC)(CC)CC` was tested, and the T/C (dose: 1.56 mg/kg/injection, schedule: Q07DX002 (ip), vehicle: saline with Tween-80) was 96 % of control, the T/C (dose: 3.12 mg/kg/injection, schedule: Q07DX002 (ip), vehicle: saline with Tween-80) was 119 % of control and the T/C (dose: 6.25 mg/kg/injection, schedule: Q07DX002 (ip), vehicle: saline with Tween-80) was 86 % of control. The T/C [14] was 59 % of control.
With `O=C1C=CN(C2OC(CO)C(O)C2O)C(=O)C1` (stereo not drawn) the T/C (dose: 25.0 mg/kg/injection, schedule: Q07DX003 (ip), vehicle: saline) was 121 % of control, the T/C (dose: 100.0 mg/kg/injection, schedule: Q07DX003 (ip), vehicle: saline) was 73 % of control and the T/C (dose: 200.0 mg/kg/injection, schedule: Q07DX003 (ip), vehicle: saline) was 163 % of control.
`C[N+](C)(C)c1cc2c(nn1)Nc1ccccc1S2` was tested, and the T/C (dose: 6.25 mg/kg/injection, schedule: Q07DX002 (ip), vehicle: Klucel (hydroxypropylcellulose) (HPC)) was 109 % of control, the T/C [8] was 122 % of control and the T/C [9] was 89 % of control and 90 % of control. For the same molecule, the T/C [16] was 97 % of control and the T/C [17] was 89 % of control.
In the case of `COc1ccc2c(c1)CCC(c1ccccc1)=C2c1ccc(OCCN2CCCC2)cc1`, the T/C [8] is reported as 68 % of control and 85 % of control, the T/C [9] is reported as 83 % of control and 87 % of control and the T/C [16] is reported as 70 % of control. For the same molecule, the T/C [17] was 77 % of control and 79 % of control and the T/C [10] was 100 % of control.
In the case of `CC(=O)Oc1ccccc1O`, the T/C (dose: 50.0 mg/kg/injection, schedule: Q07DX002 (ip), vehicle: saline + Tween-80 + alcohol) is reported as 158 % of control.
For `O=S(=O)(SC(S(=O)(=O)c1ccccc1)S(=O)(=O)c1ccccc1)c1ccccc1`, the T/C [9] was 174 % of control, the T/C [16] was 199 % of control and the T/C [17] was 113 % of control. For the same molecule, the T/C [18] was 115 % of control.
For `O=C(O)C1CC(c2ccccc2)=NN1c1ccccc1` (stereo not drawn), the T/C [19] was 114 % of control and 103 % of control, the T/C [20] was 65 % of control and the T/C [21] was 56 % of control and 69 % of control.
In the case of `Cc1cc(Nc2ccc3c(c2)OCO3)c2cc3c(cc2n1)OCO3`, the T/C [16] is reported as 86 % of control, the T/C [17] is reported as 85 % of control and the T/C [10] is reported as 36 % of control.
With `Cc1cc(N(CCOS(C)(=O)=O)CCOS(C)(=O)=O)ccc1C=Nc1ccc(-c2nc(Cc3ccccc3)sc2C)cc1` the T/C [8] was 112 % of control and 91 % of control, the T/C [9] was 100 % of control and 102 % of control and the T/C [16] was 112 % of control and 98 % of control. For the same molecule, the T/C [17] was 63 % of control and 76 % of control and the T/C [10] was 18 % of control and 30 % of control.
`COC1(OC)C2C=CC1CC2` was tested, and the T/C [14] was 73 % of control, the T/C [3] was 105 % of control and 107 % of control and the T/C [6] was 80 % of control and 94 % of control. For the same molecule, the T/C [7] was 113 % of control and 105 % of control.
`[I][Hg][CH2]C1COC([CH2][Hg][I])CO1` (stereo not drawn) was tested, and the T/C (dose: 6.25 mg/kg/injection, schedule: Q07DX002 (ip), vehicle: suspension in saline) was 67 % of control and the T/C [13] was 120 % of control.
In the case of `CCCCC(=O)OCC(=O)[C@]1(O)Cc2c(O)c3c(c(O)c2[C@@H](OC2CC(NC(=O)C(F)(F)F)C(O)C(C)O2)C1)C(=O)c1c(OC)cccc1C3=O` (stereo partly drawn), the T/C [19] is reported as 168 % of control, the T/C [20] is reported as 89 % of control and the T/C [21] is reported as 106 % of control. The T/C (dose: 400.0 mg/kg/injection, schedule: Q07DX002 (ip), vehicle: water) was 71 % of control and the T/C (dose: 800.0 mg/kg/injection, schedule: Q07DX002 (ip), vehicle: water) was 45 % of control.
With `CCOC(=O)C(CC(C)C)NC(=O)C(N)Cc1ccc(N(CCCl)CCCl)cc1` (stereo not drawn) the T/C (dose: 5.0 mg/kg/injection, schedule: Q07DX002 (ip), vehicle: saline) was 43 % of control, the T/C (dose: 5.0 mg/kg/injection, schedule: Q07DX002 (ip), vehicle: water) was 86 % of control and the T/C [1] was 65 % of control. For the same molecule, the T/C (dose: 10.0 mg/kg/injection, schedule: Q07DX002 (ip), vehicle: water) was 71 % of control, the T/C [2] was 31 % of control and the T/C (dose: 20.0 mg/kg/injection, schedule: Q07DX002 (ip), vehicle: water) was 36 % of control.
In the case of `C[C@@H]1C(=O)C[C@H]2C(C)(C)CCC[C@]2(C)[C@@]1(O)CCc1ccoc1`, the T/C [16] is reported as 74 % of control, the T/C [10] is reported as 84 % of control and the T/C [18] is reported as 67 % of control.
For `CCCCCc1cc(/C=C2/N=C(c3ccc[nH]3)C=C2OC)[nH]c1C`, the T/C (dose: 0.5 mg/kg/injection, schedule: Q07DX002 (ip), vehicle: saline with Tween-80) was 94 % of control, the T/C (dose: 2.0 mg/kg/injection, schedule: Q07DX002 (ip), vehicle: saline with Tween-80) was 163 % of control and the T/C (dose: 4.0 mg/kg/injection, schedule: Q07DX002 (ip), vehicle: saline with Tween-80) was 106 % of control. The T/C (dose: 8.0 mg/kg/injection, schedule: Q07DX002 (ip), vehicle: saline with Tween-80) was 120 % of control and the T/C (dose: 16.0 mg/kg/injection, schedule: Q07DX002 (ip), vehicle: saline with Tween-80) was 108 % of control.
`CCN(CC)CCC(=O)c1ccccc1` was tested, and the T/C (dose: 6.25 mg/kg/injection, schedule: Q07DX002 (ip), vehicle: saline) was 85 % of control, the T/C (dose: 12.5 mg/kg/injection, schedule: Q07DX002 (ip), vehicle: saline) was 118 % of control and 108 % of control and the T/C [11] was 122 % of control. The T/C [12] was 80 % of control, the T/C [13] was 85 % of control and the T/C [5] was 108 % of control.
With `CC1=C(/C=C/C(C)=C/C=C/C(C)=C/C=O)C(C)(C)CCC1` the T/C [4] was 116 % of control.
In the case of `Cc1cc(=O)n2c3c(c4c(cc13)c(CN(C)C)cc(=O)n4C)OC2`, the T/C [15] is reported as 73 % of control, the T/C [3] is reported as 56 % of control and the T/C [4] is reported as 45 % of control.
